Here are results for 14 molecules from article PMC4204995, “Inhibition of Influenza Virus Replication by Targeting Broad Host Cell Pathways” (PLoS ONE, 2014).

“And” between values parts separate entries of the source, which are not always exact repeats. Equal entries are not always repeated. Structures can show the parent of a compound that is named as a salt. Where two headings read alike, the source gives them in different places.

In one series the test system is A/Hong Kong/X31 (H3N2). In words: microbe, parasite or virus in culture. The format is cell-based, influenza A virus. The settings on record: read-out: EC50 values, A/Hong Kong/X31 (H3N2).
Series [1] concerns A/Puerto Rico/8/34 (H1N1). In words: microbe, parasite or virus in culture. The settings on record: for EC50: read-out: EC50 values, A/Puerto Rico/8/34 (H1N1). The format is cell-based, influenza A virus.
Series [2] has as its system A/California-like/2009 (H1N1). In words: microbe, parasite or virus in culture. The format is cell-based, influenza A virus.
Series [3] has as its system viral acidic polymerase (PA) expression, PR8 virus. The class given is cell-based, influenza A virus.
The next series concerns PR8 virus. The format is cell-based, influenza A virus.
The next series can be described thus: in vitro. The settings on record: dog.
A short description of series [4]: XTT cytotoxicity assay in MDCK cells. The settings on record: dog.
Series [5] concerns A/Swine/OTH-33-2/2009 (H1N1). The format is cell-based, influenza A virus.
Series [6] deals with A/Puerto Rico/8/34 (H1N1). In words: microbe, parasite or virus in culture. The format is cell-based. Particulars: Influenza A virus, H1N1 / PR8, Calu-3, 48 h, read-out: EC50 values.
Series [7] can be described thus: XTT cytotoxic assay in Calu-3 cells. The format is cell-based. The settings on record: human. A general note: Tetrazolium dyes change colour on reduction, which living cells bring about.
A further series has as its system PR8 influenza virus. The class given is cell-based, influenza A virus.
The test system of series [8] is MDCK cells. In words: XTT cytotoxicity assay in MDCK cells. Particulars: MDCK cells; for CC50: XTT cell viability, 2 days.
Series [9] relates to MDCK cells.
Where [10] appears, read: Influenza A virus, H3N2, MDCK, 48 h.
[11] abbreviates: Influenza A virus, H1N1, MDCK, 48 h.
Where [12] appears, read: Influenza A virus, H1N1, MDCK, 48 h, read-out: EC50 values, A/California-like/2009 (H1N1).
Where [13] appears, read: read-out: EC50 values, A/California-like/2009 (H1N1).

As to `CN(C)c1nc(N)c(C(=O)NC(=N)N)nc1Cl` [5-(N,N-Dimethyl)amiloride hydrochloride, 5-(N,N-Dimethyl) amiloride hydrochloride], the EC50 with A/Hong Kong/X31 (H3N2) (setting [10]) amounted to 20.4 ± 8.62 µM; in series [1] (setting [11]), 31.1 ± 7.72 µM; in series [2] (setting [12]), 63.5 ± 5.77 µM. For the same molecule, the “effect on PA gene expression” value in series [3] was “almost completely abolished”. The “inhibition of viral replication” value with PR8 virus was 80%. In “in vitro”, the CC50 at 2 days came to 175 ± 10.2 µM.
`CNc1ccc2oc(C[C@H]3O[C@@]4(CC[C@H]3C)O[C@H]([C@H](C)C(=O)c3ccc[nH]3)[C@H](C)C[C@H]4C)nc2c1C(=O)O` [A23187 (calcimycin), calcimycin (A23187)]: the EC50 in the series on A/Hong Kong/X31 (H3N2) (setting [10]) amounted to 0.08 ± 0.01 µM; in series [1] (setting [11]), 0.08 ± 0.01 µM; in series [2] (setting [12]), 0.22 ± 0.01 µM. The “decrease of PA expression” value in series [3] was 42%. For the same molecule, the “effect on viral replication” value in the series on PR8 virus is recorded as “completely inhibit viral replication”. Also, in series [4], the CC50 at 2 days worked out at 0.413 ± 0.21 µM.
On to `CCN(CC)Cc1cc(Nc2ccnc3cc(Cl)ccc23)ccc1O` [Amodiaquine, amodiaquin dihydrochloride dihydrate], for which the EC50 in the series on A/Hong Kong/X31 (H3N2) (setting [10]) is 2.63 ± 0.9 µM; in series [1] (setting [11]) it was 2.76 ± 0.95 µM; in [2] (setting [12]), 1.48 ± 0.92 µM; in series [6], 1.25 to 2.5 µM. For the same molecule, in series [1], the “reduction of PR8 replication” value is around 26%. Besides, in series [3], the “decrease of PA expression” value is recorded as 82%. Besides, in series [5], the inhibition of replication entry is “more than 60%”. In addition, the “effect on viral replication” value with PR8 virus is recorded as “abrogate viral replication”. Besides, the CC50 in series [7] was 53.6 ± 8.8 µM; in the series “in vitro”, 26.2 ± 8.43 µM. Moreover, the “effect on viral replication in growth kinetics assays” value in the series with PR8 influenza virus was “inhibited viral replication”.
As for `CO/C1=C\C(C)=C\[C@@H](C)[C@@H](O)[C@@H](C)C/C(C)=C/C=C/[C@H](OC)[C@@H]([C@@H](C)[C@@H](O)[C@H](C)[C@@]2(O)C[C@@H](O)[C@H](C)[C@@H](C(C)C)O2)OC1=O` [Bafilomycin A, bafilomycin A], the EC50 in series [1] was 0.004 µM; in [2] (read-out: EC50 values, A/California-like/2009 (H1N1), result as symbol), below 0.004 µM. The “decrease of PA expression” value in [3] is recorded as “more than 90%”. Also, the CC50 with MDCK cells [8] (footnote c: [ ] in nM) was found to be 16.8 ± 9.02 nM.
In the case of `COc1cc(CNC(=O)CCCC/C=C/C(C)C)ccc1O` [Capsaicin, capsaicin], the EC50 in the series on A/Hong Kong/X31 (H3N2) (setting [10]) stood at 55.2 ± 7.2 µM; in series [1] (setting [11]), 58.8 ± 8.32 µM; in [2] (setting [12]), 44.7 ± 8.15 µM. For the same molecule, in [3], the “decrease of PA expression” value is given as “approximately 48%”. For the same molecule, the CC50 at 2 days in [4] was found to be 157 ± 9.63 µM. In addition, the toxicity entry in the series on MDCK cells [8] (at 100 µM) is listed as “no significant toxicity”. This molecule also yielded a cell death in the series on MDCK cells [8] (at 200 µM) of 50%.
In the case of `CCN(CC)CCCC(C)Nc1ccnc2cc(Cl)ccc12` (stereo not shown) [Chloroquine, chloroquine diphosphate salt], the EC50 amounted to 4.31 ± 0.96 µM with A/Hong Kong/X31 (H3N2) (setting [10]), 0.61 ± 0.91 µM in series [1] (setting [11]) and 4.01 ± 0.8 µM in series [2] (setting [12]). Further, in [5], the inhibition of replication entry was “more than 60%”. Moreover, the “effect on viral replication” value with PR8 virus is “abrogate viral replication”.
Regarding `OC(c1cc(C(F)(F)F)nc2c(C(F)(F)F)cccc12)C1CCCCN1` (stereo not shown) [Mefloquine, mefloquine hydrochloride], the EC50 with A/Hong Kong/X31 (H3N2) (setting [10]) was 6.66 ± 0.75 µM; in [1] (setting [11]) it was 5.13 ± 0.87 µM; in series [2] (Influenza A virus, H1N1, MDCK, read-out: EC50 values, A/California-like/2009 (H1N1), result as symbol), above 22.9 µM. In series [3], the “decrease of PA expression” value was found to be 82%. Also, the CC50 in the series “in vitro” worked out at 22.9 ± 1.3 µM.
In the case of `CCC(CC)O[C@@H]1C=C(C(=O)O)C[C@H](N)[C@H]1NC(C)=O` [Oseltamivir carboxylate], the EC50 in the series with A/Hong Kong/X31 (H3N2) is 0.00074 ± 8e-05 µM; in series [1], 0.05 µM and 0.0499 µM; in series [2] (setting [13]) it was 0.103 ± 0.0321 µM; with PR8 virus it was 0.313 µM. Also, the “reduction of PR8 replication” value in series [1] is listed as “approximately 30%”. Moreover, in the series on MDCK cells [9], the CC50 was above 1000 µM.
Turning to `COc1cc(NC(C)CCCN)c2ncccc2c1` (stereo not shown) [Primaquine, primaquine diphosphate], the values for the EC50 (in the series with A/Hong Kong/X31 (H3N2) (setting [10]); in [1] (setting [11]); in [2] (setting [12])) were 29.5 ± 9.42 µM, 8.58 ± 0.89 µM and 28.6 ± 9.45 µM, respectively. Also, the “decrease of PA expression” value in series [3] was determined as 62%. In [5], the inhibition of replication entry is given as “less than 20%”.
With `CCN(CC)CCCC(C)Nc1c2ccc(Cl)cc2nc2ccc(OC)cc12` (stereo not shown) [Quinacrine, quinacrine dihydrochloride], the EC50 in the series on A/Hong Kong/X31 (H3N2) (setting [10]) worked out at 5.97 ± 0.91 µM; in series [1] (setting [11]), 2.96 ± 0.87 µM; in series [2] (setting [12]), 1.88 ± 0.87 µM. Also, the “decrease of PA expression” value in [3] was “more than 90%”. The inhibition of replication result in [5] is listed as “more than 60%”. Further, the toxicity entry in the series with MDCK cells [9] is “no toxicity”. In the series with MDCK cells [9] (dog), this molecule came in with a cell death of 10%. In the series “in vitro”, this molecule gave a CC50 of 14.6 ± 8.51 µM.
With `C=C[C@H]1C[N@@]2CC[C@H]1C[C@@H]2[C@@H](O)c1ccnc2ccc(OC)cc12` [Quinidine, quinidine anhydrous], the EC50 with A/Hong Kong/X31 (H3N2) (setting [10]) was 19.8 ± 8.83 µM; in [1] (setting [11]), 16.2 ± 8.9 µM; in series [2] (setting [12]), 5.11 ± 0.76 µM. In series [1], the “dose range at which IAV replication is inhibited” value is given as at least 16.2 µM. The “decrease of PA expression” value in series [3] is given as “more than 90%”. The CC50 in the series “in vitro” was found to be 167 ± 94.2 µM.
Consider `C=C[C@H]1C[N@@]2CC[C@H]1C[C@H]2[C@H](O)c1ccnc2ccc(OC)cc12` [Quinine, Quinine sulfate], for which the EC50 in the series on A/Hong Kong/X31 (H3N2) (setting [10]) stood at 17.1 ± 8.7 µM; in [1] (setting [11]) it was 9.1 ± 0.89 µM; in series [2] (setting [12]), 12.2 ± 8.49 µM. Besides, the “concentration needed to abrogate viral replication” value in series [1] is 50 µM; with PR8 virus, 60 µM. Also, in series [3], the “decrease of PA expression” value is listed as “more than 90%”. The “effect on viral replication” value in the series with PR8 virus was “abrogate viral replication”. The same molecule yielded a CC50 in the series “in vitro” of 409 ± 82.2 µM.
For the molecule `CCN(CC)CCCCCCCCOC(=O)c1cc(OC)c(OC)c(OC)c1.Cl` [TMB-8, TMB-8 hydrochloride], the EC50 in the series with A/Hong Kong/X31 (H3N2) is 21.7 ± 9.31 µM; in series [1] it was 2.5 ± 0.91 µM; in series [2] (setting [13]), 12.7 ± 8.65 µM. Further, the “inhibition of PR8 replication” value in series [1] (10 µM) is 90%. Besides, the “effect on PA gene expression” value in [3] was “almost completely abolished”. Further, the “effect on viral replication” value in the series with PR8 virus is “completely inhibit viral replication”. In the series on MDCK cells [9], this molecule showed a cell death of 25%. In the series with MDCK cells [9], the toxicity result is on record as “no significant toxicity”. In the series on MDCK cells [8], this molecule had a CC50 of 52300 ± 8380 nM.
With `COc1ccc(CCN(C)CCCC(C#N)(c2ccc(OC)c(OC)c2)C(C)C)cc1OC` (stereo not shown) [Verapamil, verapamil hydrochoride], the EC50 in the series with A/Hong Kong/X31 (H3N2) (setting [10]) was 19.6 ± 8.75 µM; in [6], 1.25 to 2.5 µM.
